# Measurements taken from publication PMC4096222 (Journal of Medicinal Chemistry, 2014).
# Read-outs that look alike come from different tables or passages of the source.
# Columns and labels:
# A/PR/8/34 (A/H1N1) = format: cell-based, influenza A virus
# A/M2 wt = A/M2 wt (Influenza A virus, UniProt P0DOF5); format: cell-based
# A/HK/7/87 = format: cell-based, influenza A virus; conditions: for inhibition of plaque formation: at 0.5–2 μM, 72 h
# MDCK cells = conditions: for cytotoxicity MCC: minimum cytotoxic concentration, minimal alterations in cell morphology after 72 h, MDCK; for concentration at which visibly toxic: MDCK cells
# A/HK/7/87 (A/H3N2) = test: microbe, parasite or virus in culture; format: cell-based; conditions: Influenza A virus, H3N2, MDCK, 72 h, read-out: antiviral EC50 values against A/HK/7/87 (range)
# [1] = read-out: antiviral activity A/PR/8/34 EC50 (MTS)
# [2] = read-out: antiviral activity A/PR/8/34 EC50 (CPE)
# Sequence of A/M2 wt (P0DOF5 whole entry, looked up): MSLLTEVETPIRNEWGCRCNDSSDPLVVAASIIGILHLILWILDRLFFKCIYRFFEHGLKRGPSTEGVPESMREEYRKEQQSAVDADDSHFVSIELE
smiles,measurement,setting,value
"NC12CC3CC(CC(C3)C1)C2 [amantadine, reference compound]",EC50,A/PR/8/34 (A/H1N1); [1],34 µM
"C1=CC2C3CNCC3C1C1CC21.Cl (centres unmarked) [compound 4, 4-Azatetracyclo[5.3.2.0^2,6.0^8.10]dodec-11-ene Hydrochloride]",EC50,A/PR/8/34 (A/H1N1); [2],> 100 µM
same,EC50,A/PR/8/34 (A/H1N1); [1],> 100 µM
same,inhibition of wt channel,A/M2 wt,potent low-micromolar inhibitors
same,activity in virus yield and plaque reduction assays,A/HK/7/87,confirmed the activity
same,cytotoxicity MCC,MDCK cells,100 µM
same,EC50,A/HK/7/87 (A/H3N2),3 to 8 µM
"Cl.N=C(N)N1CC2C3C=CC(C4CC34)C2C1 (centres unmarked) [compound 5, 4-Amidino-4-azatetracyclo[5.3.2.0^2,6.0^8.10]dodec-11-ene Hydrochloride]",EC50,A/PR/8/34 (A/H1N1); [2],> 100 µM
same,EC50,A/PR/8/34 (A/H1N1); [1],> 100 µM
same,inhibition of wt channel,A/M2 wt,potent low-micromolar inhibitors
same,cytotoxicity MCC,MDCK cells,100 µM
"C1CC2C3CNCC3C1C1CC21.Cl (centres unmarked) [compound 6, 4-Azatetracyclo[5.3.2.0^2,6.0^8.10]dodecane Hydrochloride]",EC50,A/PR/8/34 (A/H1N1); [2],> 100 µM
same,EC50,A/PR/8/34 (A/H1N1); [1],> 100 µM
same,inhibition of wt channel,A/M2 wt,potent low-micromolar inhibitors
same,activity in virus yield and plaque reduction assays,A/HK/7/87,confirmed the activity
same,cytotoxicity MCC,MDCK cells,100 µM
same,EC50,A/HK/7/87 (A/H3N2),3 to 8 µM
"Cl.N=C(N)N1CC2C3CCC(C4CC34)C2C1 (centres unmarked) [compound 7, 4-Amidino-4-azatetracyclo[5.3.2.0^2,6.0^8.10]dodecane Hydrochloride]",EC50,A/PR/8/34 (A/H1N1); [2],> 100 µM
same,EC50,A/PR/8/34 (A/H1N1); [1],> 100 µM
same,inhibition of wt channel,A/M2 wt,potent low-micromolar inhibitors
same,cytotoxicity MCC,MDCK cells,100 µM
"C1=CC2C3CC3C1C1CN(C3CCNCC3)CC21.Cl (centres unmarked) [compound 8, 4-(4-Piperidinyl)-4-azatetracyclo[5.3.2.0^2,6.0^8.10]dodec-11-ene Dihydrochloride]",EC50,A/PR/8/34 (A/H1N1); [2],≤ 0.8 µM
same,EC50,A/PR/8/34 (A/H1N1); [1],< 0.8 µM
same,activity on A/M2 channels,A/M2 wt,did not display any activity
same,cytotoxicity MCC,MDCK cells,100 µM
"C1CC(N2CC3C4CCC(C5CC45)C3C2)CCN1.Cl (centres unmarked) [compound 9, 4-(4-Piperidinyl)-4-azatetracyclo[5.3.2.0^2,6.0^8.10]dodecane Dihydrochloride]",EC50,A/PR/8/34 (A/H1N1); [2],> 100 µM
same,EC50,A/PR/8/34 (A/H1N1); [1],> 100 µM
same,activity on A/M2 channels,A/M2 wt,did not display any activity
same,cytotoxicity MCC,MDCK cells,20 µM
"C1=CC2C1C1C=CC2C2CNCC12.Cl (centres unmarked) [compound 11, 4-Azatetracyclo[5.4.2.0^2,6.0^8.11]trideca-9,12-diene Hydrochloride]",EC50,A/PR/8/34 (A/H1N1); [1],< 0.8 µM
same,inhibition of wt channel,A/M2 wt,potent low-micromolar inhibitors
same,inhibition of plaque formation,A/HK/7/87,visible inhibition of plaque formation
"C1CC2C1C1CCC2C2CNCC12.Cl (centres unmarked) [compound 12, 4-Azatetracyclo[5.4.2.0^2,6.0^8.11]tridecane Hydrochloride]",EC50,A/PR/8/34 (A/H1N1); [2],> 100 µM
same,EC50,A/PR/8/34 (A/H1N1); [1],> 100 µM
same,inhibition of wt channel,A/M2 wt,potent low-micromolar inhibitors
same,reduction in plaque size or number,A/HK/7/87,clear
same,concentration at which visibly toxic,MDCK cells,2 to 8 µM
"Cl.N=C(N)N1CC2C3C=CC(C4C=CC43)C2C1 (centres unmarked) [compound 13, 4-Amidino-4-azatetracyclo[5.4.2.0^2,6.0^8.11]trideca-9,12-diene Hydrochloride]",EC50,A/PR/8/34 (A/H1N1); [2],> 100 µM
same,EC50,A/PR/8/34 (A/H1N1); [1],> 100 µM
same,inhibition of wt channel,A/M2 wt,potent low-micromolar inhibitors
same,inhibition of plaque formation,A/HK/7/87,visible inhibition of plaque formation
same,cytotoxicity MCC,MDCK cells,20 µM
"Cl.N=C(N)N1CC2C3CCC(C4CCC43)C2C1 (centres unmarked) [compound 14, 4-Amidino-4-azatetracyclo[5.4.2.0^2,6.0^8.11]tridecane Hydrochloride]",EC50,A/PR/8/34 (A/H1N1); [2],> 100 µM
same,EC50,A/PR/8/34 (A/H1N1); [1],> 100 µM
same,inhibition of wt channel,A/M2 wt,potent low-micromolar inhibitors
same,reduction in plaque size or number,A/HK/7/87,modest
same,concentration at which visibly toxic,MDCK cells,2 to 8 µM
same,cytotoxicity MCC,MDCK cells,4 µM
"CC12CC34CNCC35CC1(C)C(C)(C5)C2(C)C4.Cl (centres unmarked) [compound 18, 7,8,9,10-Tetramethyl-3-azapentacyclo[7.2.1.1^5,8.0^1,5.0^7,10]tridecane Hydrochloride]",inhibition of plaque formation,A/HK/7/87,visible inhibition of plaque formation
same,cytotoxicity MCC,MDCK cells,100 µM
"CC12CC34CN(C(=N)N)CC35CC1(C)C(C)(C5)C2(C)C4.Cl (centres unmarked) [compound 19, 3-Amidino-7,8,9,10-tetramethyl-3-azapentacyclo[7.2.1.1^5,8.0^1,5.0^7,10]tridecane Hydrochloride]",EC50,A/PR/8/34 (A/H1N1); [2],> 100 µM
same,EC50,A/PR/8/34 (A/H1N1); [1],> 100 µM
same,cytotoxicity MCC,MDCK cells,≥4 µM
